Reference: ChEMBL document CHEMBL4229403, “Protein Arginine Methyltransferase 5 (PRMT5) as an Anticancer Target and Its Inhibitor Discovery” (J Med Chem, 2018)

Assays:
[1] = molecular target: PRMT5/MEP50 complex (Homo sapiens) (UniProt O14744+Q9BQA1); assay: (§1) Inhibition of human N-terminal FLAG-tagged PRMT5 (2 to end)/human N-terminal His-tagged MEP50 (2 to end) expressed in HEK293 cells at 50 uM using biotinylated H4 derived peptide as substrate preincubated for 15 mins followed by substrate addition measured after 60 mins ibn presence of [3H]SAM by liquid scintillation counting
PRMT5/MEP50 complex = PRMT5/MEP50 complex (Homo sapiens, UniProt O14744); assay: as §1, with “cells” for “cells at 50 uM”, “in” for “ibn”; type: cell-based
Chain of PRMT5/MEP50 complex (O14744 whole entry): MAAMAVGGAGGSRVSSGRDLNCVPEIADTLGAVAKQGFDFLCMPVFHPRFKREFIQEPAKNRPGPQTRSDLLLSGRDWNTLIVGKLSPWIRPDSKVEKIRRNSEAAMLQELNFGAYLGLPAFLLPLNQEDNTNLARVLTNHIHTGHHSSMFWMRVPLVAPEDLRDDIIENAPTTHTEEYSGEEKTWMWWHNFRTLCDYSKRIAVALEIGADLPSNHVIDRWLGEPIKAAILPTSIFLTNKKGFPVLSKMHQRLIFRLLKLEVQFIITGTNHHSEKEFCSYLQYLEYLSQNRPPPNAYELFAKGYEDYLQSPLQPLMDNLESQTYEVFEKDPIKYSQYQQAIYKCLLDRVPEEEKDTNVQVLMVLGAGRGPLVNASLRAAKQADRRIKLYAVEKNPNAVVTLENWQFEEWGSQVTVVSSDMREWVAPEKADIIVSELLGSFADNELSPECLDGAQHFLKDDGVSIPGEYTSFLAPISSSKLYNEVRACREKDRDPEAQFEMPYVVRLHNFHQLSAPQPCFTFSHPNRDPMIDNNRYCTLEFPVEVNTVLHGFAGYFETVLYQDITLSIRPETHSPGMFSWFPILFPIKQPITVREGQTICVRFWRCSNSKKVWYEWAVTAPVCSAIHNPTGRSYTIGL
Chain of PRMT5/MEP50 complex (Q9BQA1 whole entry, further chain): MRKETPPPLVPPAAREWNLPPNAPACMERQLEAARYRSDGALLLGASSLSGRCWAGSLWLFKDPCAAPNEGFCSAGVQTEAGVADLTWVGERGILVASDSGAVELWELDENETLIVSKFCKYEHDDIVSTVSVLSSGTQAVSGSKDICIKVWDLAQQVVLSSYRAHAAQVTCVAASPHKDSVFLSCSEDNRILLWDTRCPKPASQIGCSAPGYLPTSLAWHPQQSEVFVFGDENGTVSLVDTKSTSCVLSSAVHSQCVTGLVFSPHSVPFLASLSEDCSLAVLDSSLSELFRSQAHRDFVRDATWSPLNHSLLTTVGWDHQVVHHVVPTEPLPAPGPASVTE

[2] = molecular target: T1, Protein arginine N-methyltransferase 5 (Homo sapiens, UniProt O14744); assay: Inhibition of human 6xHis-tagged PRMT5 expressed in bacterial expression system using histone H2A as substrate after 2 hrs in presence of by S-[methyl-3H]adenosylmethionine by liquid scintillation counting
T1 sequence (O14744 whole entry): as the sequence (O14744 whole entry) above

[3] = Plasma concentration in iv dosed Sprague-Dawley rat administered as single dose; type: ADME, organism-based; settings: in vivo
[4] = Plasma concentration in po dosed Sprague-Dawley rat administered as single dose; type: ADME, organism-based; settings: in vivo
Z-138 [5] = assay: Antiproliferative activity against human Z138 cells after 3 days by cell titer-glo luminescent cell viability assays; type: functional, cell-based; settings: Z-138, 72 h
Maver1 [6] = assay: Antiproliferative activity against human Maver1 cells after 3 days by cell titer-glo luminescent cell viability assays; type: functional, cell-based; settings: Maver1, 72 h
JeKo-1 = assay: Antiproliferative activity against human JeKo1 cells after 3 days by cell titer-glo luminescent cell viability assays; type: functional, cell-based; settings: JeKo-1, 72 h
[7] = molecular target: T1, Protein arginine N-methyltransferase 5; assay: Inhibition of PRMT5 (unknown origin) at 50 uM by radioactive methylation assay
[8] = Antiproliferative activity against human Th1 cells by trypan blue exclusion assay; type: functional, cell-based
[9] = Antiproliferative activity against human TH2 cells by trypan blue exclusion assay; type: functional, cell-based
[10] = molecular target: T1, Protein arginine N-methyltransferase 5; assay: Inhibition of human PRMT5 expressed in insect cells co-expressing His-tagged MEP50 using Ser-Gly-Arg-Gly- Lys-Gly-Gly-Lys-Gly-Leu-Gly-Lys-Gly-Gly-Ala-Lys-Arg-His-Arg-Lys-Val-NH2 peptide as substrate after 4 hrs in presence of SAM by Transcreene EPIGEN methyltransferase assays
[11] = Oral bioavailability in mouse at 10 mg/kg; type: ADME, organism-based; settings: in vivo
[12] = Volume of distribution in mouse at 2 mg/kg, iv; type: ADME, organism-based; settings: in vivo
[13] = Plasma clearance in mouse at 2 mg/kg, iv; type: ADME, organism-based
Z-138 [14] = assay: Antitumor activity against human Z138 cells xenografted in SCID mouse assessed as tumor growth inhibition at 200 mg/kg, po BID administered for 21 days; type: functional; settings: Z-138, po, 504 h, read-out: TGI
Maver1 [15] = assay: Antitumor activity against human Maver1 cells xenografted in SCID mouse assessed as tumor growth inhibition at 200 mg/kg, po BID administered for 21 days; type: functional; settings: 504 h, read-out: TGI
[16] = molecular target: T1, Protein arginine N-methyltransferase 5; assay: Inhibition of PRMT5 (unknown origin) using H4R3 as substrate by HTRF assay

OCCNCc1c(OCc2ccc(Cl)cc2)ccc2ccccc12
inhibition [1]: 69%
IC50 (PRMT5/MEP50 complex): 35.6 µM

OCCNCc1cccc2ccccc12
inhibition [1]: 2%

CCn1c2ccccc2c2cc(CNC3CCCc4ccccc43)ccc21 (stereo not given)
IC50 [2]: 0.517 µM
concentration [3]: 7.88 µM
concentration [4]: 3.57 µM

OC(CNCc1c(OCc2ccccc2)ccc2ccccc12)c1ccccc1 (stereo not given)
EC50 (Z-138 [5]): 12.7 µM
EC50 (Maver1 [6]): 12.7 µM
EC50 (JeKo-1): 10.5 µM

CCn1c2ccccc2c2cc(CNCc3ccccn3)ccc21
inhibition [7]: 7.8%

CCn1c2ccc(Br)cc2c2cc(CNCc3ccccc3OC)ccc21
IC50 [8]: 1.1 µM
IC50 [9]: 4 µM

O=C(NC[C@H](O)CN1CCc2ccccc2C1)c1ccc(C(=O)N2CCOCC2)cc1
IC50 [10]: 0.109 µM

O=C(NC[C@H](O)CN1CCc2ccccc2C1)c1cc(NC2COC2)ncn1
bioavailability [11]: 69%
Vd [12]: 1.7 L/kg
clearance [13]: 30 mL/min/kg
inhibition in vivo at 200 mg/kg (Z-138 [14]): > 93%
inhibition in vivo at 200 mg/kg (Maver1 [15]): > 93%

O=C(NC[C@H](O)CN1CCCCC1)c1cc(NC2COC2)ncn1
IC50 [16]: > 10 µM

CC(=O)N1CCC(Oc2nccc(C(=O)NC[C@@H](O)CNC3Cc4ccccc4C3)c2Cl)CC1
IC50 [10]: 0.105 µM
